In ChEMBL document CHEMBL4033662, “The computer-aided discovery of novel family of the 5-HT6 serotonin receptor ligands among derivatives of 4-benzyl-1,3,5-triazine” (Eur J Med Chem, 2017):

Columns and labels:
[1] = molecular target: 5-hydroxytryptamine receptor 6 (Homo sapiens, UniProt P50406); test: Displacement of [3H]-LSD from human 5-HT6R expressed in HEK293 cells; format: cell-based
[2] = system: Rattus norvegicus; test: Antidepressant activity in Wistar rat assessed as decrease in immobility time at 0.3 mg/kg, ip administered 60 mins prior to testing measured for 5 mins by forced swim test; format: functional; design: scale not given: the % may be the effect or the level left

Sequence of 5-hydroxytryptamine receptor 6 (P50406 whole entry): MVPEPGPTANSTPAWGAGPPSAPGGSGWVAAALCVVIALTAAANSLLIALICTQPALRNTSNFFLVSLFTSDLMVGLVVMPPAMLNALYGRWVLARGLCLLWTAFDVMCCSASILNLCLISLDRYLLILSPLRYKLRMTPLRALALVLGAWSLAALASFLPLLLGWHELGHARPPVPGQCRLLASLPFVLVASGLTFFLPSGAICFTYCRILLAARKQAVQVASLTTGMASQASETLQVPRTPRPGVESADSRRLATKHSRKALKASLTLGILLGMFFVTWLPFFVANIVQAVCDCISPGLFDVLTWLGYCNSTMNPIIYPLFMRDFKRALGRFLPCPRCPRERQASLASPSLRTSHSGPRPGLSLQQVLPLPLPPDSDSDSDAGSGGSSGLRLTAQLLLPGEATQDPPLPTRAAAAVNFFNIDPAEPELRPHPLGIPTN

Structure (SMILES) | Ki [1] | Activity [2]
COc1cccc(Cc2nc(N)nc(N3CCN(C)CC3)n2)c1 | 158 nM | –
CN1CCN(c2nc(N)nc(Cc3cccs3)n2)CC1 | 305 nM | –
CN1CCN(c2nc(N)nc(Cc3ccccc3F)n2)CC1 | 88 nM | –
Cc1cccc(Cc2nc(N)nc(N3CCN(C)CC3)n2)c1 | – | 30%
CN1CCN(c2nc(N)nc(Cc3ccc(F)cc3)n2)CC1 | 100 nM | –
CN1CCN(c2nc(N)nc(Cc3ccncc3)n2)CC1 | 1830 nM | –
COc1ccc(Cc2nc(N)nc(N3CCN(C)CC3)n2)cc1 | 440 nM | –
CN1CCN(c2nc(N)nc(Cc3ccccc3)n2)CC1 | 95 nM | –
COc1ccccc1Cc1nc(N)nc(N2CCN(C)CC2)n1 | 193 nM | –

Continued, in another order:

Ki [1] | Structure (SMILES) | Activity [2]
64 nM | CN1CCN(c2nc(N)nc(Cc3cccc(F)c3)n2)CC1 | –
20 nM | CN1CCN(c2nc(N)nc(Cc3cccc4ccccc34)n2)CC1 | –
56 nM | CN1CCN(c2nc(N)nc(Cc3ccccc3Cl)n2)CC1 | –
64 nM | Cc1ccc(Cc2nc(N)nc(N3CCN(C)CC3)n2)cc1 | –
22 nM | CN1CCN(c2nc(N)nc(Cc3c[nH]c4ccccc34)n2)CC1 | 37%
80 nM | Cc1ccccc1Cc1nc(N)nc(N2CCN(C)CC2)n1 | –
32 nM | CN1CCN(c2nc(N)nc(Cc3ccc(Cl)c(Cl)c3)n2)CC1 | –
28 nM | CN1CCN(c2nc(N)nc(Cc3cccc(Cl)c3)n2)CC1 | 29%
